According to patent US4574080A, “Combination formulation” (A/S Alfred Benzon, priority 1982, dated 1986):

Assays:
[1] = Adhesion of clopamide to (film-coated) potassium chloride crystals after dry coating / mechanical stress; assay type: physicochemical; conditions: for A: amount of clopamide adhered immediately after the dry coating / B: clopamide adhered per dose of finished granulate / C: clopamide removed during mixing of the granulate (A-B): Table 2, Talc 2.0 ×
Procedure: A sample containing film-coated KCl-crystals with clopamide adhered to the surface was placed on a sieve.
The sieve and sample were shaken (Pascal sieve, model 1) for 15 minutes. The quantity of clopamide adhered to the film-coated crystals was then determined as described under Content Uniformity (clopamide)
The amount of clopamide adhered was determined as described under MATERIALS AND METHODS. In Table 1, the influence of the anti-adhesive and the coating time on the adhesion tendency of clopamide is shown.
As a considerable amount of the clopamide (about 20%) is removed by the admixture of the necessary auxiliary materials for the tabletting process (vide Table 1), it was examined whether a more gentle, but more laborious method in which the auxiliary materials are premixed separately, thus reducing the final mixing time, would reduce this removal.
The examinations were carried out as described above for the examination of the adhesion tendency of clopamide, and the amount of clopamide adhered was again determined as described under MATERIALS AND METHODS; the dry coating time was 60 minutes. The results are shown in Table 3 wherein A, B and C are as described above, and D designates the relative amount of adhered clopamide abrased during the final mixing [formula]

[2] = Diuretic effect (urine volume) in healthy subjects; assay type: in vivo, human (healthy subjects); conditions: clopamide 20 mg
Procedure: Complete balanced cross-over study with single dose administration.
Blood samples were collected 36 hours and urine samples 24 hours after administration.
10 healthy subjects without any history of renal, hepatic, gastrointestinal or heart disease.
Clopamide 20 mg and potassium chloride 2400 mg (32 mEq):
Two days before drug administration and throughout the test days the volunteers were kept on a low potassium diet (less than 30 mEq) and a standardized calorie intake of about 2000 kcal per day. No tea, coffee or alcohol was allowed. For the individual person the diet was identical on all six test days (2 period of 3 days).
The day before drug aministration the volunteers were given 100 ml water every hour from 09.00 a.m. during the next 12 hours, i.e. 1300 ml water per day. The same procedure was followed on the test day.
Blood samples were drawn before dosing and 1, 2, 3, 4, 6, 8, 12, 24 and 36 hours after. Urine was collected quantitatively 24 hours before drug administration and 24 hours after in aliquots: 0-1 h, 1-2 h, 2-3 h, 3-4 h, 4-6 h, 6-8 h, 8-12 h, and 12-24 h.
Data which fulfil the requirement for using parametric tests were analyzed by a three-way analysis of variance, splitting the total variation up into variations between subjects, treatment periods, treatment and residual. Logarithmic transformations of the variables have been used in appropriate cases.

[3] = Colloidal silicon dioxide 0.13 × the amount of clopamide, coating time 10 min
[4] = Colloidal silicon dioxide 0.13 × the amount of clopamide, coating time 30 min
[5] = Colloidal silicon dioxide 0.13 × the amount of clopamide, coating time 60 min
[6] = gentle admixture of auxiliary materials (5 min), coating time 60 min
[7] = usual admixture of auxiliary materials (11 min), coating time 60 min
[8] = Talc 2.0 × the amount of clopamide, coating time 10 min
[9] = Talc 2.0 × the amount of clopamide, coating time 30 min
[10] = Talc 2.0 × the amount of clopamide, coating time 60 min
[11] = Talc […] the amount of clopamide, coating time 10 min
[12] = Talc […] the amount of clopamide, coating time 30 min
[13] = Talc […] the amount of clopamide, coating time 60 min
[14] = treatment days compared to control days

A: amount of clopamide adhered in percent of the theoretical dose immediately after the dry coating [1, 3]: 70.4% | B: percentage of the theoretical dose of clopamide adhered per dose of finished granulate [1, 3]: 60.2% | C: percentage of a dose of clopamide removed during the mixing of the granulate (A-B) [1, 3]: 10.2% | A: amount of clopamide adhered in percent of the theoretical dose immediately after the dry coating [1, 4]: 75.2% | B: percentage of the theoretical dose of clopamide adhered per dose of finished granulate [1, 4]: 58.8% | C: percentage of a dose of clopamide removed during the mixing of the granulate (A-B) [1, 4]: 16.4% | A: amount of clopamide adhered in percent of the theoretical dose immediately after the dry coating [1, 5]: 85.8% | B: percentage of the theoretical dose of clopamide adhered per dose of finished granulate [1, 5]: 66.6% | C: percentage of a dose of clopamide removed during the mixing of the granulate (A-B) [1, 5]: 19.2% | A: amount of clopamide adhered immediately after the dry coating [1, 6]: 83.0% | B: clopamide adhered per dose of finished granulate [1, 6]: 70.0% | C: clopamide removed during mixing of the granulate (A-B) [1, 6]: 13.0% | A: amount of clopamide adhered immediately after the dry coating [1, 7]: 86.2% | B: clopamide adhered per dose of finished granulate [1, 7]: 70.6% | C: clopamide removed during mixing of the granulate (A-B) [1, 7]: 15.6% | A: amount of clopamide adhered in percent of the theoretical dose immediately after the dry coating [1, 8]: 76.4% | B: percentage of the theoretical dose of clopamide adhered per dose of finished granulate [1, 8]: 53.8% | C: percentage of a dose of clopamide removed during the mixing of the granulate (A-B) [1, 8]: 22.6% | A: amount of clopamide adhered in percent of the theoretical dose immediately after the dry coating [1, 9]: 87.6% | B: percentage of the theoretical dose of clopamide adhered per dose of finished granulate [1, 9]: 65.4% | C: percentage of a dose of clopamide removed during the mixing of the granulate (A-B) [1, 9]: 22.2% | A: amount of clopamide adhered in percent of the theoretical dose immediately after the dry coating [1, 10]: 86.2% | B: percentage of the theoretical dose of clopamide adhered per dose of finished granulate [1, 10]: 70.6% | C: percentage of a dose of clopamide removed during the mixing of the granulate (A-B) [1, 10]: 15.6% | A: amount of clopamide adhered in percent of the theoretical dose immediately after the dry coating [1, 11]: 96.4% | B: percentage of the theoretical dose of clopamide adhered per dose of finished granulate [1, 11]: 65.0% | C: percentage of a dose of clopamide removed during the mixing of the granulate (A-B) [1, 11]: 31.4% | A: amount of clopamide adhered in percent of the theoretical dose immediately after the dry coating [1, 12]: 88.4% | B: percentage of the theoretical dose of clopamide adhered per dose of finished granulate [1, 12]: 69.8% | C: percentage of a dose of clopamide removed during the mixing of the granulate (A-B) [1, 12]: 18.6% | A: amount of clopamide adhered in percent of the theoretical dose immediately after the dry coating [1, 13]: 100.2% | B: percentage of the theoretical dose of clopamide adhered per dose of finished granulate [1, 13]: 78.6% | C: percentage of a dose of clopamide removed during the mixing of the granulate (A-B) [1, 13]: 21.6% | amount of clopamide removed by the admixture of the auxiliary materials ([1]; vide Table 1): about 20%
SMILES: C[C@@H]1CCC[C@H](C)N1NC(=O)c1ccc(Cl)c(S(N)(=O)=O)c1 [Clopamide, 4-chloro-N--(cis-2,6-dimethylpiperidino)-3-sulfamoyl-benzamide]
effect of increased coating time on adhesion (in words) ([1]; talc as anti-adhesive): not only an increased adhesion, but also a more resistant adhesion | total 24 h urine, percent of that of control days ([2]; 95% CI 138.9 to 185.3%): 160.4% | 24 hours urine volume (in words) [2, 14]: statistically significant increase | hourly maximal urine volume (in words) [2, 14]: statistically significant increase
